The structures appear in SMILES notation. Where only a bound is given, the exact number is not on record here.

The subject of one assay is PC-3. Description: Antiproliferative activity against human PC3 cells by SRB assay. It counts as functional.
Another assay relates to ACHN. Put plainly: Antiproliferative activity against human ACHN cells by SRB assay. It counts as functional. For orientation: In SRB staining, fixed cells bind dye roughly in proportion to their protein.
In another assay the test system is NCI-H23. Description: Antiproliferative activity against human NCI-H23 cells by SRB assay. It counts as functional.
A further assay concerns MDA-MB-231. Put plainly: Antiproliferative activity against human MDA-MB-231 cells by SRB assay. It counts as functional.
For the next assay, the system named is NUGC-3. Put plainly: Antiproliferative activity against human NUGC3 cells by SRB assay. It counts as functional.
The next assay relates to HCT-15. Description: Antiproliferative activity against human HCT15 cells by SRB assay. It counts as functional.
Assay [1] is described as follows: Inhibition of NFkappaB expressed in THP1 cells assessed as inhibition of LPS-induced SEAP activity incubated for 2 hrs prior to LPS-induction measured after 16 hrs by reporter gene assay. As to conditions: THP-1. It counts as cell-based. Background: In a reporter assay the amount or activity of a reporter protein is the signal.
Assay [2] is described as follows: Inhibition of NFkappaB expressed in RAW264.7 cells coexpressing NPT assessed as inhibition of LPS-induced SEAP activity incubated for 2 hrs prior to LPS-induction measured after 16 hrs by reporter gene assay. It counts as cell-based.

A word on the GI50: it is the concentration that inhibits growth by half. Higher therefore signals less potent growth inhibition. Consider `COc1cccc2c1C(=O)c1c(O)c3c(c(O)c1C2=O)C[C@@](O)(C(=O)CO)C[C@@H]3O[C@H]1C[C@H](N)[C@H](O)[C@H](C)O1` [DOXORUBICIN], for which the GI50 worked out at 1.65 µM in the assay with PC-3; 1.63 µM in the assay on ACHN; 1.66 µM in the assay with NCI-H23; 1.79 µM with MDA-MB-231; 1 µM with NUGC-3; 1.34 µM with HCT-15.
Usually IC50 stands for the point on the concentration scale where inhibition reaches its midpoint. With `CC(C)C1CC(=O)c2s/c(=N/C3CCCCC3)oc2C1` (stereo not drawn), the GI50 in the assay with PC-3 is 5.16 µM; with ACHN it was 6.7 µM; in the assay with NCI-H23 it was 7.08 µM; in the assay on MDA-MB-231 it was 5.9 µM; in the assay on NUGC-3 it was 2.71 µM; in the assay on HCT-15, 3.53 µM. For the same compound, the IC50 in assay [1] and in assay [2] was 13.1 µM each time.
Consider `CC1(C)CC(=O)c2s/c(=N/c3ccc(F)cc3)oc2C1`, for which the GI50 in the assay with PC-3 was 2.45 µM; with ACHN it was 3.74 µM; in the assay with NCI-H23, 3.36 µM; in the assay with MDA-MB-231, 3.2 µM; in the assay with NUGC-3, 1.08 µM; in the assay on HCT-15, 2.39 µM. Besides, the IC50 in assay [1] and in assay [2] was 10.6 µM in each case.
As for `CC1(C)CC(=O)c2s/c(=N/C3CCCCC3)oc2C1`, the GI50 in the assay on PC-3 was 12.7 µM; in the assay on ACHN it was 11.3 µM; with NCI-H23, 12.5 µM; with MDA-MB-231, 13.1 µM; in the assay with NUGC-3, 11.5 µM; in the assay with HCT-15, 12.2 µM. For the same compound, the IC50 in assay [1] and in assay [2] was 12.5 µM each time.
For the compound `CC1(C)CC(=O)c2o/c(=N/C3CCCCC3)oc2C1`, the GI50 in the assay on PC-3, in the assay with ACHN, with NCI-H23, in the assay with MDA-MB-231, in the assay with NUGC-3 and in the assay on HCT-15 was greater than 30 µM in each case. Moreover, the half-maximal inhibitory concentration (IC50) in assay [1] and in assay [2] was greater than 30 µM in each case.
As to `CC1CC(=O)c2s/c(=N/c3c(Cl)cc(Cl)cc3Cl)oc2C1` (stereo not drawn), the concentration for 50% growth inhibition (GI50) in the assay on PC-3, in the assay on ACHN, in the assay on NCI-H23, in the assay with MDA-MB-231, in the assay on NUGC-3 and in the assay with HCT-15 was greater than 30 µM throughout. Further, the IC50 in assay [1] and in assay [2] was greater than 30 µM throughout.
`CC1CC(=O)c2s/c(=N/c3ccccc3)oc2C1` (stereo not drawn): the GI50 in the assay with PC-3 came to 2.63 µM; with ACHN, 2.98 µM; in the assay with NCI-H23, 2.72 µM; with MDA-MB-231, 2.31 µM; in the assay with NUGC-3, 1.89 µM; with HCT-15 it was 2.07 µM. The IC50 in assay [1] and in assay [2] was 6.7 µM each time.
For `CCCc1o/c(=N\c2ccccc2)sc1C(C)=O`, the GI50 in the assay with PC-3, in the assay with ACHN, in the assay with NCI-H23, with MDA-MB-231, in the assay with NUGC-3 and with HCT-15 was greater than 30 µM each time. For the same compound, the IC50 in assay [1] and in assay [2] was greater than 30 µM in each case.
In the case of `CC1CC(=O)c2s/c(=N/c3ccc(Cl)cc3)oc2C1` (stereo not drawn), the GI50 with PC-3 worked out at 16.4 µM; with ACHN, 12.3 µM; with NCI-H23, 13.5 µM; in the assay on MDA-MB-231 it was 14.3 µM; with NUGC-3, 15.9 µM; in the assay with HCT-15 it was 12.2 µM. Also, the IC50 in assay [1] and in assay [2] was 19.5 µM in each case.
Turning to `CC(C)C1CC(=O)c2s/c(=N/c3ccccc3)oc2C1` (stereo not drawn), the GI50 in the assay with PC-3 is 2.19 µM; in the assay with ACHN it was 3.08 µM; in the assay with NCI-H23 it was 2.28 µM; in the assay on MDA-MB-231, 2.48 µM; in the assay with NUGC-3, 1.22 µM; in the assay on HCT-15, 1.15 µM. Further, the IC50 in assay [1] and in assay [2] was 4.9 µM each time.
As for `CC1(C)CC(=O)c2s/c(=N/c3ccccc3)oc2C1`, the 50% growth inhibitory concentration (GI50) in the assay on PC-3 came to 7.4 µM; with ACHN, 8.98 µM; in the assay with NCI-H23, 7.08 µM; with MDA-MB-231, 5.88 µM; with NUGC-3, 5.46 µM; in the assay on HCT-15, 8.09 µM. Further, the IC50 in assay [1] and in assay [2] was 6.2 µM throughout.
With `CC(C)C1CC(=O)c2s/c(=N/c3ccc(F)cc3)oc2C1` (stereo not drawn), the GI50 in the assay on PC-3 is 2.76 µM; in the assay on ACHN, 3.67 µM; in the assay with NCI-H23, 3.65 µM; with MDA-MB-231 it was 2.69 µM; in the assay with NUGC-3, 0.67 µM; in the assay on HCT-15, 2.99 µM. Further, the IC50 in assay [1] and in assay [2] was 7.9 µM throughout.
For `CC1(C)CC(=O)c2s/c(=N/c3c(Cl)cc(Cl)cc3Cl)oc2C1`, the GI50 with PC-3, in the assay on ACHN, in the assay on NCI-H23, in the assay on MDA-MB-231, in the assay on NUGC-3 and with HCT-15 was greater than 30 µM in each case. Besides, the IC50 in assay [1] and in assay [2] was greater than 30 µM in each case.
`CC(C)C1CC(=O)c2s/c(=N/c3c(Cl)cc(Cl)cc3Cl)oc2C1` (stereo not drawn): the GI50 in the assay on PC-3, in the assay with ACHN, in the assay with NCI-H23, with MDA-MB-231, in the assay with NUGC-3 and in the assay with HCT-15 was greater than 30 µM throughout. Moreover, the IC50 in assay [1] and in assay [2] was greater than 30 µM throughout.
On to `CC1(C)CC(=O)c2s/c(=N/c3ccc(Cl)cc3)oc2C1`, for which the GI50 worked out at 4.26 µM in the assay with PC-3; 9.81 µM in the assay on ACHN; 11.6 µM with NCI-H23; 6.38 µM in the assay on MDA-MB-231; 2.94 µM in the assay on NUGC-3; 3.79 µM in the assay on HCT-15. The IC50 in assay [1] and in assay [2] was 7.5 µM each time.

For the origin of these results see ChEMBL document CHEMBL2046421, “Study on anti-proliferative effect of benzoxathiole derivatives through inactivation of NF-κB in human cancer cells” (Bioorg Med Chem Lett, 2012).
